Source: patent US12440431B2, “Cosmetic comprising ultraviolet wavelength conversion substance” (Shiseido Company, Ltd., priority 2019, dated 2025)

How the values were obtained:
[1] = system: Human dermal fibroblasts; assay: Cell activity (AlamarBlue) of cells irradiated with UV through a UV wavelength conversion substance solution; type: cell-based; settings: UV dose 0-100 mJ/cm^2, FIG. 3
Experimental: The UV wavelength conversion substances (1) and (2) were dissolved in water to prepare solutions having a concentration of 1% or 5%.
The UV wavelength conversion substances (3) and (4) were dispersed in alcohol to prepare 5% and 10% dispersions.
(§1) 1. Human dermal fibroblasts and human skin keratinocytes purchased from Kurabo Industries Ltd. were used. A cell suspension (1 mL) stored in liquid nitrogen was thawed in a water bath (37° C.) to an extent that small ice pellets remained, and then diluted with 9 mL of warm medium. 2. The diluted suspension was mixed gently and then transferred to a T75 flask and incubated overnight at 37° C. 3. The next day, the medium was replaced with 10 mL of fresh medium. 4. The medium was replaced periodically (once every 2 days for fibroblasts and once every 2 to 3 days for keratinocytes) and cell proliferation was continued. Meanwhile, the cells were observed using a microscope, and it was confirmed that the cells grew in the correct form. 5. After the cells reached about 80% confluence, the cells were passaged. The cells were passaged by washing the cells once with 10 mL of warm PBS, adding 5 mL of warm trypsin to a T75 flask, covering the bottom of the flask with a trypsin solution, followed by aspirating at room temperature for 1 minute. 6. […]

[2] = system: Human dermal fibroblasts; assay: Restoration of cell activity decreased by prior UV irradiation (AlamarBlue); type: cell-based; settings: pre-irradiation 400 mJ/cm^2 without substance, then UV 0-200 mJ/cm^2 through 0.4% or 2% C-phycocyanin (equivalent effect), FIG. 5
Experimental: as §1, with “6. The flask was allowed to stand in an oven at 37° C. for (maximum) 2 minutes for fibroblasts and (maximum) 7 minutes for keratinocytes. The cells were observed using a microscope and confirmed to be small and oval. 7. Thereafter, the side of the T75 flask was lightly tapped to release the cells.” for “6.”

C-phycocyanin
cell activity (relative fluorescence intensity) ([1]; 0.4% C-phycocyanin solution): the decrease in cell activity was suppressed | cell activity (relative fluorescence intensity) ([1]; 2% C-phycocyanin solution): the cell activity was even increased compared to the case where UV irradiation was not carried out | cell activity (relative fluorescence intensity) after prior decrease by UV [2]: cell activity was recovered
